Patent publication US20260206786A1, “PROCEDURE FOR PREPARING COMPOSITIONS WITH A HIGH CONTENT OF BIOACTIVE COMPOUNDS” (I.T.P. S.R.L. INNOVATION & TECHNOLOGY PROVIDER, priority 2022, published 2026)
Where two headings read alike, the source gives them in different places.

Experiments:
[1] = Comparison of process of the invention with maceration in oil, UV/VIS spectra; type: physicochemical
Description: (§1) Spectrophotometric analyses were performed using an ONDA UV/VIS Spectrophotometer, Model UV-31 SCAN. The oil samples were suitably diluted in RPE ethanol supplied by Carlo Erba. Scans were performed in the wavelength range of 600 nm and 300 nm, with a step size of 1 nm, using optical glass cuvettes.
(§2) In order to compare the efficacy of the method of the invention with the traditional method of enrichment by maceration in oil, enrichment of vegetable oils was carried out using both methods. Subsequently, equal amounts of oil obtained using the two methods were solubilised in a suitable solvent, respecting the same dilution ratio, and the resulting solutions were subjected to chromatographic and spectrophotometric analysis.

[2] = Concentration of bioactive compound in oil enriched by the process of the invention; type: physicochemical
Description: as §1
(§3) HPLC analyses were performed using an Agilent HPLC Chromatograph, 1100 Series, equipped with an Agilent Technologies 1200 Series DAD UV/VIS detector, using an Agilent Eclipse plus 95 Å C18 Column, (100 mm—4.6 mm, 3.5 μm). Acetonitrile, Methanol, Water and Formic Acid for HPLC supplied by Sigma-Aldrich were used for the mobile phase.
At the end of the process, 5 mL of enriched oil was recovered with a concentration expressed as mass of lycopene per mass of oil of 35 mg/100 g, a concentration measured at 25° C. after centrifuging the oil for 15 minutes at 10,000 RPM.

[3] = traditional preparation techniques, literature, cited from earlier work
[4] = Comparison of process of the invention with maceration in oil, HPLC chromatograms; type: physicochemical; conditions: Argan oil; Example 1 versus maceration of pure lycopene powder in oil
Description: as §3, §2

| lycopene concentration (absorbance at 502 nm), process of the invention versus traditional methodology ([1]; Argan oil, Example 1 versus maceration of pure lycopene powder in oil) | concentration expressed as mass of lycopene per mass of oil ([2]; refined argan oil enriched per Example 1 (R1234ze, 28° C., 4.5 atm, 120 minutes), measured at 25° C. after centrifuging 15 minutes at 10,000 RPM) [mg/100 g] | lycopene concentration (HPLC peak area), process of the invention versus conventional method [4] | concentration expressed as mass of Curcumin on mass of oil ([2]; wheat germ oil enriched per Example 2 (R1234ze, 28° C., 4.5 atm, 355 minutes), measured at 25° C. after centrifugation 15 minutes at 10,000 RPM) [mg/100 g] | capsaicin concentration (absorbance at 280 nm), innovative methodology versus traditional methodology ([1]; sunflower oil, Example 3 versus maceration) | concentration expressed as mass of Capsaicin on mass of oil ([2]; deodorised sunflower oil enriched per Example 3 (R134a, 35° C., 7.66 atm, 90 minutes), measured at 25° C. after centrifugation 15 minutes at 10,000 RPM) [mg/100 g] | Compound | maximum concentration in vegetable oil [3] | maximum concentration in vegetable oil ([3]; listed as capsicin) |
| --- | --- | --- | --- | --- | --- | --- | --- | --- |
| approximately 3.3 times | 35 | about 3.3 times | – | – | – | CC(C)=CCC/C(C)=C/C=C/C(C)=C/C=C/C(C)=C/C=C/C=C(C)/C=C/C=C(C)/C=C/C=C(\C)CCC=C(C)C [lycopene] | 7-8 mg per 100 g of oil | – |
| – | – | – | 1420 | – | – | COc1cc(/C=C/C(=O)CC(=O)/C=C/c2ccc(O)c(OC)c2)ccc1O [curcumin] | – | – |
| – | – | – | – | approximately 6 times | 61.2 | COc1cc(CNC(=O)CCCC/C=C/C(C)C)ccc1O [capsaicin] | no more than 10 mg per 100 g of oil | ≤ 10 mg per 100 g of oil |
